For assay [1], the target named is Proto-oncogene tyrosine-protein kinase Src (Homo sapiens) (UniProt P12931). Put plainly: Residual activity of SRC at 10 uM by microplate scintillation counting.
In assay [2] the target is Glycogen synthase kinase-3 beta (Homo sapiens) (UniProt P49841). Put plainly: Residual activity of GSK3-beta at 10 uM by microplate scintillation counting.
For assay [3], the target named is Wee1-like protein kinase (Homo sapiens) (UniProt P30291). Put plainly: Residual activity of WEE1 at 10 uM by microplate scintillation counting.
Wee1-like protein kinase (Homo sapiens), sequence (P30291 whole entry, looked up): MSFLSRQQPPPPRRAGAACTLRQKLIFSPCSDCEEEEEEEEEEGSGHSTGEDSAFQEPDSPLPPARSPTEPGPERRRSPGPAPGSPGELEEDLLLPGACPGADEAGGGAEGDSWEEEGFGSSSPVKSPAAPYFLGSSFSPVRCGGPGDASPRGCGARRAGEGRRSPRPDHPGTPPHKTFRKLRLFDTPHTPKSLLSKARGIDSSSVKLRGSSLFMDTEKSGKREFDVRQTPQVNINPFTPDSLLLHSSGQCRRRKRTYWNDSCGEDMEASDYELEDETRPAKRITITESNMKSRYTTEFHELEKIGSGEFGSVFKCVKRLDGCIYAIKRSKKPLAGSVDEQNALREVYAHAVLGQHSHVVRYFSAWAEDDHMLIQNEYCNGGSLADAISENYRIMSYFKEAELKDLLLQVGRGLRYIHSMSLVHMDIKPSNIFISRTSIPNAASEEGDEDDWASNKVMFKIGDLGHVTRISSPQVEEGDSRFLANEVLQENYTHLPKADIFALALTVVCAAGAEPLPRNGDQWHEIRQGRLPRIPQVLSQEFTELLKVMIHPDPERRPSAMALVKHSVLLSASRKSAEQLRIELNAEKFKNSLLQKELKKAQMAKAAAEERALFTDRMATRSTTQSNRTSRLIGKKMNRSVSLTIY
Assay [4] concerns the target T1, Serine/threonine-protein kinase 3 (Homo sapiens) (UniProt Q13188).
T1 sequence (whole entry): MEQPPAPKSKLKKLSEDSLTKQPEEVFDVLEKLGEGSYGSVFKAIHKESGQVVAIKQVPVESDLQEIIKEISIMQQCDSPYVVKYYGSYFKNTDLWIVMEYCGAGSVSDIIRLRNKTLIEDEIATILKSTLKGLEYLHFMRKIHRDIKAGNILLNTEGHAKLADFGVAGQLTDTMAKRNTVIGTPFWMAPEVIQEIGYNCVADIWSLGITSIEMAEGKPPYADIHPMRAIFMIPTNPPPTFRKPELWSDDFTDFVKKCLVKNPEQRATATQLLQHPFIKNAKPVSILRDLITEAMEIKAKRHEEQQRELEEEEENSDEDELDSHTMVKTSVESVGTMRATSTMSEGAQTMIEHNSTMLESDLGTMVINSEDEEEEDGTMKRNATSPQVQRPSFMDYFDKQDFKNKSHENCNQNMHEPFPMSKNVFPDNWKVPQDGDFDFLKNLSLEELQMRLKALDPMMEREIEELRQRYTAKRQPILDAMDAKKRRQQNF
Put plainly: Residual activity of MST2 at 10 uM by microplate scintillation counting.

Assay [5] deals with Vascular endothelial growth factor receptor 3 (Homo sapiens, UniProt P35916). Put plainly: Residual activity of VEGFR3 at 0.1 uM by microplate scintillation counting.
Vascular endothelial growth factor receptor 3, sequence (P35916 whole entry): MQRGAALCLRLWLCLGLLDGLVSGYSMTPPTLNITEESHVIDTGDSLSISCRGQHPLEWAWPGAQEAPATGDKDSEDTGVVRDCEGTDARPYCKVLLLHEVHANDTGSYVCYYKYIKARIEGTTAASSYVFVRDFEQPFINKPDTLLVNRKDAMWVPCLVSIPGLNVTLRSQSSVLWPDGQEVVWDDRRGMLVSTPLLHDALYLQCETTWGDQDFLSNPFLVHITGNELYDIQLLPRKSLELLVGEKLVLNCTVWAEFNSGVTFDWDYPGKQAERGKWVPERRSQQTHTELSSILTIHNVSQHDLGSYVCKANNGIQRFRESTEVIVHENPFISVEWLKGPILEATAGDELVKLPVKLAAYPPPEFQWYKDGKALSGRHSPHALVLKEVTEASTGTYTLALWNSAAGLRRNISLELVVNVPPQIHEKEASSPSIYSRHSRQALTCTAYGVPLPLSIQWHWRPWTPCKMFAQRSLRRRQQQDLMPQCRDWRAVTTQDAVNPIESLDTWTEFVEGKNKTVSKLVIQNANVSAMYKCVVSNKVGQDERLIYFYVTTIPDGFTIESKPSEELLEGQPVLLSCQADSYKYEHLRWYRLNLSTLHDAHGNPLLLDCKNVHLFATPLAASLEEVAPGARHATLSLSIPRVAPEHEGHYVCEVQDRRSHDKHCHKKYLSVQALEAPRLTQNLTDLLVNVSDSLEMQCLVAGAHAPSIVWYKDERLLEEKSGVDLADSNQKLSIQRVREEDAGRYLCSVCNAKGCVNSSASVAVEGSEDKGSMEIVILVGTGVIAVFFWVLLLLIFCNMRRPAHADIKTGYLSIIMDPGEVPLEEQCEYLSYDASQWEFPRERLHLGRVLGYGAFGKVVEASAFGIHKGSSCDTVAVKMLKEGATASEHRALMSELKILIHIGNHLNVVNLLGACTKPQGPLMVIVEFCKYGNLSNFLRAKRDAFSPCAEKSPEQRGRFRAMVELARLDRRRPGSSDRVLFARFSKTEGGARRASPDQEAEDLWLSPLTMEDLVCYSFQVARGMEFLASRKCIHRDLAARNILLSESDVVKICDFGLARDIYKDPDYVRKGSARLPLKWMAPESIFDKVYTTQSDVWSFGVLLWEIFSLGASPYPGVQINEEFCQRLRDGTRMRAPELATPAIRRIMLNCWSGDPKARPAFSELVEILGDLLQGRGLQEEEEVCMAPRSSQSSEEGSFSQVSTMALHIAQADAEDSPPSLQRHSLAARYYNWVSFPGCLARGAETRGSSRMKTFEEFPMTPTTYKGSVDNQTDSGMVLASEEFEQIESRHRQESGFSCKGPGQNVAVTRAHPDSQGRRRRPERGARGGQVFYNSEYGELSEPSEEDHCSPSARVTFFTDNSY
The target in assay [6] is Ribosomal protein S6 kinase alpha-6 (Homo sapiens) (UniProt Q9UK32). Put plainly: Residual activity of RPS6KA6 at 10 uM by microplate scintillation counting.
For assay [7], the system named is Mast/stem cell growth factor receptor Kit (Homo sapiens), P10721 [T670I]. Put plainly: Residual activity of KIT T670I mutant at 0.1 uM by microplate scintillation counting.
The target in assay [8] is Serine/threonine-protein kinase N2 (Homo sapiens) (UniProt Q16513). Put plainly: Residual activity of PRK2 at 10 uM by microplate scintillation counting.
Assay [9] addresses SRSF protein kinase 3 (Homo sapiens) (UniProt Q9UPE1). Put plainly: Residual activity of STK23 at 0.1 uM by microplate scintillation counting.
Assay [10] has as its target T2, Serine/threonine-protein kinase Nek2 (Homo sapiens) (UniProt P51955).
T2 sequence (whole entry): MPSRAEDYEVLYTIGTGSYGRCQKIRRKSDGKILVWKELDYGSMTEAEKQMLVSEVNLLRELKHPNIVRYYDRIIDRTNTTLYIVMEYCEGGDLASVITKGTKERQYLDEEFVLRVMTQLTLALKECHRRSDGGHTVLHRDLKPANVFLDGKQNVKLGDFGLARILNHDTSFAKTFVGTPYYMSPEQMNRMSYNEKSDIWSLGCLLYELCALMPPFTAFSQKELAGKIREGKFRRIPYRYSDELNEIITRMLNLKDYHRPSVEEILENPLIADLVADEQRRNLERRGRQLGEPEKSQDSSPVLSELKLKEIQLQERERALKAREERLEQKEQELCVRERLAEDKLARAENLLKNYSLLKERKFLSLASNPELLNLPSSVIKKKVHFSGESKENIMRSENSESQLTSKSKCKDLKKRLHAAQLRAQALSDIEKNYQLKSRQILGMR
Put plainly: Residual activity of NEK2 at 1 uM by microplate scintillation counting.

In assay [11] the target is Proto-oncogene tyrosine-protein kinase Src (Homo sapiens) (UniProt P12931). Put plainly: Residual activity of SRC at 1 uM by microplate scintillation counting.
Assay [12] concerns the target Serine/threonine-protein kinase WNK2 (Homo sapiens) (UniProt Q9Y3S1). Put plainly: Residual activity of WNK2 at 0.1 uM by microplate scintillation counting.
Assay [13] deals with Proto-oncogene tyrosine-protein kinase receptor Ret (Homo sapiens) (UniProt P07949). Put plainly: Residual activity of RET at 10 uM by microplate scintillation counting.
Assay [14] addresses T3, Serine/threonine-protein kinase Nek1 (Homo sapiens) (UniProt Q96PY6).
T3 sequence (whole entry): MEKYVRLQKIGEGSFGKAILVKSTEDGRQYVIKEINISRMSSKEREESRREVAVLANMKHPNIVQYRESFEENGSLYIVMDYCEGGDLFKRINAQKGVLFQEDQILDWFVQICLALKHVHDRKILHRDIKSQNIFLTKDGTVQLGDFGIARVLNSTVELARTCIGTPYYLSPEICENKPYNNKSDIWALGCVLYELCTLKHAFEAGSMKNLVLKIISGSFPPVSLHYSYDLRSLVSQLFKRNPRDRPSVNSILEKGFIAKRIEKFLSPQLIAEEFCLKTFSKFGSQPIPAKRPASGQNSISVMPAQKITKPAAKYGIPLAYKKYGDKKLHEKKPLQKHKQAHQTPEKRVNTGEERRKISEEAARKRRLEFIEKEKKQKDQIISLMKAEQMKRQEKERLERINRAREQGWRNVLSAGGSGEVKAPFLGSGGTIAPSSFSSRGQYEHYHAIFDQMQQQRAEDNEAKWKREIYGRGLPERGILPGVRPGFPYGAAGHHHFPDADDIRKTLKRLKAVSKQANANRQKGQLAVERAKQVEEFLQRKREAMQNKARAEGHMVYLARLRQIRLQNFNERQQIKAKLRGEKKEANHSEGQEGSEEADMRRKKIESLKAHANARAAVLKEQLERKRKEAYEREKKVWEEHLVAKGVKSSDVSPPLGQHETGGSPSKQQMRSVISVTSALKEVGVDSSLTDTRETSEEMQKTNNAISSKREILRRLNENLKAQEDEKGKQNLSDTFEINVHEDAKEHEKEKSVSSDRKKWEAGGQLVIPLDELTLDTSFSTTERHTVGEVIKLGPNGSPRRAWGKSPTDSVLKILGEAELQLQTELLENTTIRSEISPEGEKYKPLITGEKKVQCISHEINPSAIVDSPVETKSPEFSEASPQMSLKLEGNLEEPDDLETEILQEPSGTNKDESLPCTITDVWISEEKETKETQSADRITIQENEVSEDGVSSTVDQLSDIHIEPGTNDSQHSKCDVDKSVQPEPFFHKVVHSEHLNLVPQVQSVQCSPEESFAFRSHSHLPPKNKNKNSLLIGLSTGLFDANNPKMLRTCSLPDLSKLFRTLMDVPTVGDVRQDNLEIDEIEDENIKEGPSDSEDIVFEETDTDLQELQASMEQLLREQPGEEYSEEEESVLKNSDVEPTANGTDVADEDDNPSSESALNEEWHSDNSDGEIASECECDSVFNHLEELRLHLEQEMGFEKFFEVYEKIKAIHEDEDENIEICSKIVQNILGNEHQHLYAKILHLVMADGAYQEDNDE
Put plainly: Residual activity of NEK1 at 0.1 uM by microplate scintillation counting.

SRSF protein kinase 3 (Homo sapiens), sequence (Q9UPE1 whole entry): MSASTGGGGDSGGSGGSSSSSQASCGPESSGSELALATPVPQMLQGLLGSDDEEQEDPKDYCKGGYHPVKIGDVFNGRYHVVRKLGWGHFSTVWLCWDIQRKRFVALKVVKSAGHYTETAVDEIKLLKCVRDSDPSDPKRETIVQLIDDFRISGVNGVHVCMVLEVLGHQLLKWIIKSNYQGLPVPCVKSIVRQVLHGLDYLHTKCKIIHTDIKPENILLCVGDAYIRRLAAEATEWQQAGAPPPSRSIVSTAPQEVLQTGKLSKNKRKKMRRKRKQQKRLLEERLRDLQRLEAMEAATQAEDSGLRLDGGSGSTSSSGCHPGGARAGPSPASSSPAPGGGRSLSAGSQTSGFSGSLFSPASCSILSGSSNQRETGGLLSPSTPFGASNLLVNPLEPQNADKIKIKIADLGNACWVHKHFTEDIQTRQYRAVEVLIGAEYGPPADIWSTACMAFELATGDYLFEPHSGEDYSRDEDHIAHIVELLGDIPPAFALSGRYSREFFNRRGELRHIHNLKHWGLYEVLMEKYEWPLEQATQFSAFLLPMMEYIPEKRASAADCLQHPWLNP
Serine/threonine-protein kinase WNK2 (Homo sapiens), sequence (Q9Y3S1 whole entry): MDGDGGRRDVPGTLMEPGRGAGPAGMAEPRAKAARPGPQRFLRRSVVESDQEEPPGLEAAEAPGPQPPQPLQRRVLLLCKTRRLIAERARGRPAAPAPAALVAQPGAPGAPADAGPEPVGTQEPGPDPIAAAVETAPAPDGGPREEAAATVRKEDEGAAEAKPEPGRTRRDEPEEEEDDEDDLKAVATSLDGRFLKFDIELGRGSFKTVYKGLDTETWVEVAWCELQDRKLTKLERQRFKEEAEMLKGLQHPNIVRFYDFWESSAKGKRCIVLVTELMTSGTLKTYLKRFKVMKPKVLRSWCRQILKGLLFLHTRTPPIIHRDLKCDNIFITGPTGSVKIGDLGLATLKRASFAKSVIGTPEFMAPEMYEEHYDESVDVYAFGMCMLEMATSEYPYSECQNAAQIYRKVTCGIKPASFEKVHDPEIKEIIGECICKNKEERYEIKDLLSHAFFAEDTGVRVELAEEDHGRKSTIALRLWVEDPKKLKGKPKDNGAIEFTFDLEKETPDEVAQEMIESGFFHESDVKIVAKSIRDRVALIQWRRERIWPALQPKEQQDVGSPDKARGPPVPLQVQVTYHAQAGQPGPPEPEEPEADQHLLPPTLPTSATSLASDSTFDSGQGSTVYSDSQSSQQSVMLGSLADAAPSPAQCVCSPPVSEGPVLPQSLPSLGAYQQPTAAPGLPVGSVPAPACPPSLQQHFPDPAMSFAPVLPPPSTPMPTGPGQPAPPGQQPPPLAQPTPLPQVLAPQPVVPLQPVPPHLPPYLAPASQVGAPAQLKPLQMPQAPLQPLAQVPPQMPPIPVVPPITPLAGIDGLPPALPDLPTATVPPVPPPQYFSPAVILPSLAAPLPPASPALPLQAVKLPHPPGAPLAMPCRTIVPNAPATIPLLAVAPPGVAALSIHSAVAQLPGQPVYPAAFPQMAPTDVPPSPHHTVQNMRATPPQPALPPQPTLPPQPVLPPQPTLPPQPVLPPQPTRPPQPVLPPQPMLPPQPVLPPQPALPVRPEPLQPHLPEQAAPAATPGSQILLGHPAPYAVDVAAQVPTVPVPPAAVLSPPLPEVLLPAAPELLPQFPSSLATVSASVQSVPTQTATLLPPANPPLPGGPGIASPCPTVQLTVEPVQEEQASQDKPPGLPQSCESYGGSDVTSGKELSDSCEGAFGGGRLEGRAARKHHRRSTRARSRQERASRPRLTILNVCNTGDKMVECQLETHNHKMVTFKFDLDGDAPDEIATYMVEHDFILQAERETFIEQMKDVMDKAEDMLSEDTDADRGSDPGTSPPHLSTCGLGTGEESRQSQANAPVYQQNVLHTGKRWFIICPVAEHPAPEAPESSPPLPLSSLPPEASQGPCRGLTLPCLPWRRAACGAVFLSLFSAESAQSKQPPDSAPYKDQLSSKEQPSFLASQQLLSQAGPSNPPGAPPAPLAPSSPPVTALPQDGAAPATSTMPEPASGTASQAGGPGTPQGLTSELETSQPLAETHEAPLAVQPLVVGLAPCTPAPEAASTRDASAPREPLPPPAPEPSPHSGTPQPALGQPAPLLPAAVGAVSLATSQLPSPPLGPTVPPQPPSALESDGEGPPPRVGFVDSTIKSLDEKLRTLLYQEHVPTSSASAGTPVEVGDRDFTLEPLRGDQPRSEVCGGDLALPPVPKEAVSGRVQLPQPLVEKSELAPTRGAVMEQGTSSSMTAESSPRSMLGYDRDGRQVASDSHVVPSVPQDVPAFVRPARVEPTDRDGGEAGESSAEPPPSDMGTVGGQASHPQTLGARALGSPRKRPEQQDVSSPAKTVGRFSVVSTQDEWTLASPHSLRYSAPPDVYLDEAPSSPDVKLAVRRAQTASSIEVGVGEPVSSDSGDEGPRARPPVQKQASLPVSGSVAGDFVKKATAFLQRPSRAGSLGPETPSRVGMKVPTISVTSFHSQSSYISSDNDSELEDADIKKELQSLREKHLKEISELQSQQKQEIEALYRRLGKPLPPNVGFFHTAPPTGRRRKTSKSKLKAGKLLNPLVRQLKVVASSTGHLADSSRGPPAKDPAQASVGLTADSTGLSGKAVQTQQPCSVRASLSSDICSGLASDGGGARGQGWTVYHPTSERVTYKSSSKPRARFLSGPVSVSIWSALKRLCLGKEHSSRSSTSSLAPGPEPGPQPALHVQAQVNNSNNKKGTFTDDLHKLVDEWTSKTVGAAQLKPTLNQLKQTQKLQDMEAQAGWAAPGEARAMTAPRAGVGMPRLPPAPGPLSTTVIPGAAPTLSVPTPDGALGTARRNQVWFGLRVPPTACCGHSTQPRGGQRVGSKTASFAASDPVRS

Regarding `COc1cc2c(Oc3ccc(-c4nc5ccccc5s4)cc3)ncnc2cc1OCCCN1CCN(C)CC1`, the residual activity (commonly the signal under treatment as a percentage of the control signal) in assay [1] is 75%; in [2], 123%; in [3] it was 2%; in assay [4], 21%; in assay [5], 60%; in assay [6], 35%. For the same compound, the residual activity turned out to be 103% in [7]; 95% in assay [8]; 88% in [9]; 81% in [10]; 87% in assay [11]; 74% in assay [12]. Besides, the values for the residual activity in [13] and in [14] were 13% and 87%, respectively.

In the case of `COc1cc2c(Oc3ccc(-c4nc5ccccc5s4)cc3)ncnc2cc1OCCCN1CCCC1`, the residual activity came to 83% in assay [1]; 104% in assay [2]; 46% in assay [3]; 20% in assay [4]; 57% in assay [5]; 50% in assay [6]. Also, the residual activity came out at 113% in assay [7]; 85% in assay [8]; 80% in assay [9]; 89% in assay [10]; 95% in [11]; 81% in [12]. Moreover, the residual activity in [13] was 21%; in assay [14] it was 98%.

With `COc1cc2c(Oc3ccc(-c4nc5ccccc5s4)cc3F)ncnc2cc1OCCCN1CCN(C)CC1`, the residual activity in [1] turned out to be 45%; in [2], 98%; in [3], 2%; in assay [4], 23%; in [5], 64%; in assay [6], 32%. In addition, the residual activity was found to be 97% in assay [7]; 75% in assay [8]; 88% in assay [9]; 89% in assay [10]; 89% in [11]; 87% in assay [12]. In addition, the residual activity in assay [13] is 5%; in assay [14], 93%.

Source of the values: ChEMBL document CHEMBL1152560, “Substituted 2-arylbenzothiazoles as kinase inhibitors: hit-to-lead optimization” (Bioorg Med Chem, 2009).
